Structures can show the parent of a compound that is named as a salt.
Tested on: spiral strips of the pulmonary artery of the guinea pig
Assay: relaxant effect on potassium-depolarized, CaCl2-contracted spiral strips of the pulmonary artery of the guinea pig
Conditions: Cavia porcellus, 40 mmol/l potassium, contraction by 0.5 mmol/l CaCl2, cumulative addition, average value of 4 to 6 vessel strips, read-out: IC50: concentration of the test substance which inhibits the contraction by 50%
Method: The pharmacological action of the compounds of the formula I was determined by a modified method of Godfraind and Kaba (Arch. Int. Pharmacodyn. Ther. 196, (Suppl ) 35 to 49, 1972) and of Schuman et al. (Naunyn-Schmiedeberg'sArch. Pharmacol. 289, 409 to 418, 1975). In this connection, spiral strips of the pulmonary artery of the guinea pig are depolarized using 40 mmol/l of potassium after equilibration in calcium-free Tyrode solution. An addition of 0.5 mmol/l of CaCl2 then induces a contraction. The relaxant effect of the test substance is determined by cumulative addition in semilogarithmic graduated concentrations. The concentration of the test substance which inhibits the contraction by 50% (=IC50, mol/l) is determined from the concentration-effect curve (abscissa: --log mol/l of test substance, ordinate % inhibition of the maximum contraction, average value of 4 to 6 vessel strips).

SMILES | IC50
CC1CCCC(C)N1[n+]1[n-]oc(=N)c1CSc1ccccc1 (stereo not shown) [Example 5, 3-(2,6-Dimethylpiperidino)-4-phenylthiomethylsydnone imine hydrochloride] | 1100 nM
CC1CCCC(C)N1[n+]1[n-]oc(=N)c1CSCc1ccccc1 (stereo not shown) [Example 8, 4-Benzylthiomethyl-3-(2,6-dimethylpiperidino)sydnone imine hydrochloride] | 800 nM
CC(CSCc1ccccc1)c1c(=N)o[n-][n+]1N1CCOCC1 (stereo not shown) [Example 12, 4-(2-Benzylthio-1-methylethyl)-3-morpholinosydnone imine hydrochloride] | 500 nM
N=c1o[n-][n+](N2CCOCC2)c1CSCc1ccccc1 [Example 7, 4-Benzylthiomethyl-3-morpholinosydnone imine hydrochloride] | 700 nM
CC1CCCC(C)N1[n+]1[n-]oc(=N)c1COc1ccccc1 (stereo not shown) [Example 13, 3-(2,6-Dimethylpiperidino)-4-phenoxymethylsydnone imine hydrochloride] | 2000 nM

The next lines start with the values.

IC50 | SMILES
2000 nM | CC1CCCC(C)N1[n+]1noc([N-]C(=O)c2ccccc2)c1CSCc1ccccc1 (stereo not shown) [Example 10, N-Benzoyl-4-benzylthiomethyl-3-(2,6-dimethylpiperidino)sydnone imine]
> 300000 nM | CCOC(=O)[N-]c1cn(N2CCOCC2)n[o+]1 [molsidomine, N-ethoxycarbonyl-3-morpholino-sydnone imine, reference compound]
